# Measurements from patent US9321756B2, “Azole compounds as PIM inhibitors” (priority 2011, dated 2016).
# Where two headings read alike, the source gives them in different places.
# Assays:
# [1] = biological target: full length recombinant Pim-2 (Homo sapiens (Human), UniProt Q9P1W9); assay: Pim enzyme assay (HTRF, phosphorylation of biotinylated-BAD (S112) peptide), Pim-2; assay type: biochemical; details: Pim-2 enzyme assay; read-out: Pim2_IC50
# [2] = biological target: full length recombinant Pim-1 (Homo sapiens (Human), UniProt P11309); assay: Pim enzyme assay (HTRF, phosphorylation of biotinylated-BAD (S112) peptide), Pim-1; assay type: biochemical; details: read-out: Pim_1_IC50
# [3] = tested on: Pim-1 stably transfected U2OS human osteogenic sarcoma line; assay: Pim cell assay U2OS (phospho-BAD normalized against total BAD), Pim-1 transfected; assay type: cell-based
# Experimental: The cell lines used in the assay were generated by the stable transfection of either Pim-1 or Pim-2 into the U2OS human osteogenic sarcoma line. The assay for determination of the Pim activity in the engineered U2OS cell lines measures levels of phospho-BAD normalized against total BAD protein levels. It was conducted as follows:
# The adherent cells were dissociated from the flasks using non-enzymatic cell dissociation solution (Sigma #C5914). […] The cells were then incubated overnight at 37° C., 5% CO2.
# In addition to the 10-point dosing curve of the test compound, DMSO alone was run as the high control.
# This dilution in DMSO was then diluted again into cell growth medium. Aliquots (12 μL) of the compound diluted in growth medium were then transferred to the appropriate wells of the 96-well plates containing cells to a final DMSO concentration of 0.3%. The cell plates were then incubated with compound for 29 min at 37° C., 5% CO2.
# The cell plates containing lysis buffer were then immediately stored at −70° C.
# These prepared lysates were then assayed for phospho and total BAD according to the manufacturer's protocols (Meso Scale Diagnostics, Cat#K15103C-3 & #K15103D-3). The plates were read on the MSD Sector Imager 6000, and results were calculated according to the assay protocols ((% Phosphoprotein=((2×Phospho signal)/(Phospho signal+Total signal))×100)).
# [4] = biological target: full length recombinant Pim-3 (Homo sapiens (Human), UniProt Q86V86); assay: Pim enzyme assay (HTRF, phosphorylation of biotinylated-BAD (S112) peptide), Pim-3; assay type: biochemical; details: Pim-3 enzyme assay; read-out: Pim3 IC50
# Source text: Pim-3 was purchased from Millipore (UK).
# The phosphorylation of biotinylated-BAD (S112) peptide by full length recombinant Pim-1, Pim-2, or Pim-3 protein was detected with streptavidin:Allophycocyanin (APC) conjugate and a europium (Eu) labeled antibody directed against phosphorylated-BAD (S112). […] The fluorescence is directly proportional to the amount of phosphorylated BAD peptide present in the reaction.
# A reference compound was included on each assay plate in order to validate that plate; on one plate of every assay run, two additional reference compounds were included.
# The final buffer conditions were as follows: 60 mM Hepes, pH 7.0, 0.05% BSA, 2 mM DTT. Incubations were carried out at RT (22° C.) for 2 h for Pim-1, 1 h and 30 min for Pim-3, and 45 min for Pim-2. The reaction was then stopped by the addition of 3 mM EDTA, and fluorescence was measured by an HTRF® Rubystar microplate reader. For each plate, percent of control (POC) values were calculated for each well. Values for the IC50 IP were estimated using a standard 4-parameter logistic model.
# [5] = Homo sapiens, U2OS, read-out: U2OS Pim1_Cell_IC50, U2OS cells, Pim-1 transfected
# [6] = Homo sapiens, U2OS, read-out: U2OS Pim1_Cell_IC50
# [7] = read-out: U2OS Pim1_Cell_IC50, U2OS cells, Pim-1 transfected
# Chain of full length recombinant Pim-2 (Q9P1W9 whole entry): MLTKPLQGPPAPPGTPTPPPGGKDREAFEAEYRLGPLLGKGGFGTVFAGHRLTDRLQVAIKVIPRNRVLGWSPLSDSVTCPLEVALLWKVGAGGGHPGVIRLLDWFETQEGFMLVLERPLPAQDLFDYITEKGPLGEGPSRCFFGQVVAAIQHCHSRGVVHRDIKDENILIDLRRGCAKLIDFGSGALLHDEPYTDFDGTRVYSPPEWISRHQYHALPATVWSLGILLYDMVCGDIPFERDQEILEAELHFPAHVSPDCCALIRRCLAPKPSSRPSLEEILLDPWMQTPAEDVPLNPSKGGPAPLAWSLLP
# Chain of full length recombinant Pim-1 (P11309 whole entry): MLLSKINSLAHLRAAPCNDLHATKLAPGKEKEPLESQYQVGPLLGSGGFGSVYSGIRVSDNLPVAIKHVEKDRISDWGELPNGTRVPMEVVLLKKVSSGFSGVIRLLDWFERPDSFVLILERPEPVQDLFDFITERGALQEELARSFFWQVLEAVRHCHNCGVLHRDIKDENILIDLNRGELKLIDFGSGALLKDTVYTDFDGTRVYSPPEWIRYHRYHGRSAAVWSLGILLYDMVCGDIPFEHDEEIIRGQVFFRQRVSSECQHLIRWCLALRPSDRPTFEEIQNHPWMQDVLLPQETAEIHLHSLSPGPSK
SMILES,IC50 [1] [nM],IC50 ([2]; Pim-1 enzyme assay) [nM],"IC50 [3, 5] [nM]",IC50 [4] [nM],"IC50 [3, 6] [nM]",IC50 [2] [nM],"IC50 [3, 7] [nM]","IC50 ([3]; Homo sapiens, U2OS cells, Pim-1 transfected, read-out: U2OS Pim1_Cell_IC50) [nM]"
"Fc1ccccc1-c1c[nH]c2ccc(-c3nnc(N[C@H]4CCCNC4)s3)cc12 (stereo in doubt) [Example 139, N-(5-(3-(2-fluorophenyl)-1H-indol-5-yl)-1,3,4-thiadiazol-2-yl)-3-piperidinamine]",106,29.3,578,18.4,,,,
"N[C@H]1CCN(c2nnc(-c3ccc4[nH]cc(-c5ccccc5F)c4c3)s2)C1 (stereo in doubt) [Example 140, 1-(5-(3-(2-fluorophenyl)-1H-indol-5-yl)-1,3,4-thiadiazol-2-yl)-3-pyrrolidinamine]",244,73.2,,13.4,871,,,
"Fc1ccccc1-c1c[nH]c2ccc(-c3nnc(NCC[C@H]4CCCCN4)s3)cc12 (stereo in doubt) [Example 141, 5-(3-(2-fluorophenyl)-1H-indol-5-yl)-N-(2-(2-piperidinyl)ethyl)-1,3,4-thiadiazol-2-amine]",480,74,,49.6,1110,,,
"Nc1nnc(-c2ccc3[nH]cc(-c4cccc(N5CCCC5)n4)c3c2)s1 [Example 14, 5-(3-(6-(pyrrolidin-1-yl)pyridin-2-yl)-1H-indol-5-yl)-1,3,4-thiadiazol-2-amine]",42,,,,,11.1,159,
"Nc1nnc(-c2ccc3[nH]cc(-c4cncc(NC5CC5)n4)c3c2)s1 [Example 15, 5-(3-(6-(cyclopropylamino)pyrazin-2-yl)-1H-indol-5-yl)-1,3,4-thiadiazol-2-amine]",20.1,,108,,,4.57,,
"Nc1nnc(-c2ccc3[nH]cc(-c4cccc(OC5CCCCC5)n4)c3c2)s1 [Example 173, 5-(3-(6-(cyclohexyloxy)-2-pyridinyl)-1H-indol-5-yl)-1,3,4-thiadiazol-2-amine]",114,40.5,,,,,,1020
"Nc1nnc(-c2ccc3[nH]cc(-c4cccc(N5CCCC5)n4)c3c2)s1 [Example 176, 5-(3-(6-(1-pyrrolidinyl)-2-pyridinyl)-1H-indol-5-yl)-1,3,4-thiadiazol-2-amine]",104,,,,,43.5,526,
"CNc1nnc(-c2ccc3[nH]cc(-c4cn[nH]c4)c3c2)s1 [Example 218, N-methyl-5-(3-(1H-pyrazol-4-yl)-1H-indol-5-yl)-1,3,4-thiadiazol-2-amine]",623,241,,123,,,,
"CNc1nnc(-c2ccc3[nH]cc(-c4ccncc4)c3c2)s1 [Example 219, N-methyl-5-(3-(4-pyridinyl)-1H-indol-5-yl)-1,3,4-thiadiazol-2-amine]",686,551,,204,,,,
"CNc1nnc(-c2ccc3[nH]cc(-c4cccnc4)c3c2)s1 [Example 220, N-methyl-5-(3-(3-pyridinyl)-1H-indol-5-yl)-1,3,4-thiadiazol-2-amine]",1230,636,,274,,,,
"CNc1nnc(-c2ccc3[nH]cc(-c4cccc(N)c4)c3c2)s1 [Example 221, 5-(3-(3-aminophenyl)-1H-indol-5-yl)-N-methyl-1,3,4-thiadiazol-2-amine]",1490,744,,158,,,,
"CNc1nnc(-c2ccc3[nH]cc(-c4ccn[nH]4)c3c2)s1 [Example 222, N-methyl-5-(3-(1H-pyrazol-5-yl)-1H-indol-5-yl)-1,3,4-thiadiazol-2-amine]",1440,1010,,268,,,,
"CNc1nnc(-c2ccc3[nH]cc(-c4cccc(C(F)(F)F)c4)c3c2)s1 [Example 224, N-methyl-5-(3-(3-(trifluoromethyl)phenyl)-1H-indol-5-yl)-1,3,4-thiadiazol-2-amine]",> 3000,1890,,207,,,,
"CNc1nnc(-c2ccc3[nH]cc(-c4cccc(OC(F)(F)F)c4)c3c2)s1 [Example 225, N-methyl-5-(3-(3-(trifluoromethoxy)phenyl)-1H-indol-5-yl)-1,3,4-thiadiazol-2-amine]",> 3000,2360,,416,,,,
"CNc1nnc(-c2ccc3[nH]cc(-c4cccc(OC)c4)c3c2)s1 [Example 226, 5-(3-(3-methoxyphenyl)-1H-indol-5-yl)-N-methyl-1,3,4-thiadiazol-2-amine]",> 3000,2450,,354,,,,
"CNc1nnc(-c2ccc3[nH]cc(-c4cccc(-n5ccnc5C)n4)c3c2)s1 [Example 234, N-methyl-5-(3-(6-(2-methyl-1H-imidazol-1-yl)-2-pyridinyl)-1H-indol-5-yl)-1,3,4-thiadiazol-2-amine]",123,108,,18.5,,,,
"CNc1nnc(-c2ccc3[nH]cc(-c4cccc(N5CCCCC5=O)n4)c3c2)s1 [Example 236, 1-(6-(5-(5-(methylamino)-1,3,4-thiadiazol-2-yl)-1H-indol-3-yl)-2-pyridinyl)-2-piperidinone]",538,325,,114,,,,
"CNc1nnc(-c2ccc3[nH]cc(-c4c(F)cccc4F)c3c2)s1 [Example 237, 5-(3-(2,6-difluorophenyl)-1H-indol-5-yl)-N-methyl-1,3,4-thiadiazol-2-amine]",1220,538,,227,,,,
"CNc1nnc(-c2ccc3[nH]cc(-c4cccc(-n5ccccc5=O)n4)c3c2)s1 [Example 238, 6′-(5-(5-(methylamino)-1,3,4-thiadiazol-2-yl)-1H-indol-3-yl)-2H-1,2′-bipyridin-2-one]",856,712,,197,,,,
"CNc1nnc(-c2ccc3[nH]cc(-c4cccc(F)n4)c3c2)s1 [Example 239, 5-(3-(6-fluoro-2-pyridinyl)-1H-indol-5-yl)-N-methyl-1,3,4-thiadiazol-2-amine]",739,1030,,170,,,,
"CNc1nnc(-c2ccc3[nH]cc(-c4csc(-c5ccoc5)n4)c3c2)s1 [Example 240, 5-(3-(2-(3-furanyl)-1,3-thiazol-4-yl)-1H-indol-5-yl)-N-methyl-1,3,4-thiadiazol-2-amine]",2640,1520,,409,,,,
"CNc1nnc(-c2ccc3[nH]cc(-c4ccc(-c5cccs5)s4)c3c2)s1 [Example 241, 5-(3-(2,2′-bithiophen-5-yl)-1H-indol-5-yl)-N-methyl-1,3,4-thiadiazol-2-amine]",> 10000,2180,,414,,,,
"NC(=O)c1nnc(-c2ccc3[nH]cc(-c4cccc(N5CCOCC5)n4)c3c2)s1 [Example 242, 5-(3-(6-(4-morpholinyl)-2-pyridinyl)-1H-indol-5-yl)-1,3,4-thiadiazole-2-carboxamide]",> 3000,983,,351,,,,
"c1ccc(-c2nnc(-c3ccc4[nH]cc(-c5nccc(C6CC6)n5)c4c3)o2)cc1 [Example 255, 3-(4-cyclopropyl-2-pyrimidinyl)-5-(5-phenyl-1,3,4-oxadiazol-2-yl)-1H-indole]",677,323,,123,,,,
"CC(Nc1nnc(-c2ccc3[nH]cc(-c4ncccn4)c3c2)o1)c1ccccc1 (stereo not drawn) [Example 266, N-(1-phenylethyl)-5-(3-(2-pyrimidinyl)-1H-indol-5-yl)-1,3,4-oxadiazol-2-amine]",229,64.8,,43.6,,,,
"CC(Nc1nnc(-c2ccc3[nH]cc(-c4ccccn4)c3c2)o1)c1ccccc1 (stereo not drawn) [Example 267, N-(1-phenylethyl)-5-(3-(2-pyridinyl)-1H-indol-5-yl)-1,3,4-oxadiazol-2-amine]",231,97.2,,56.1,,,,
"CC(Nc1nnc(-c2ccc3[nH]cc(-c4cnccn4)c3c2)o1)c1ccccc1 (stereo not drawn) [Example 268, N-(1-phenylethyl)-5-(3-(2-pyrazinyl)-1H-indol-5-yl)-1,3,4-oxadiazol-2-amine]",559,171,,81.2,,,,
